Assay results from ChEMBL document CHEMBL1134266, “Design and pharmacology of quinuclidine derivatives as M2-selective muscarinic receptor ligands” (Bioorg Med Chem Lett, 2001).

Tests used:
Type in all cases: cell-based
[1] = biological target: T1, Muscarinic acetylcholine receptor M2 (Homo sapiens, UniProt P08172); test: Affinity for Muscarinic acetylcholine receptor M2 expressed in CHO cells by [3H]NMS displacement.
T1 sequence (P08172 whole entry): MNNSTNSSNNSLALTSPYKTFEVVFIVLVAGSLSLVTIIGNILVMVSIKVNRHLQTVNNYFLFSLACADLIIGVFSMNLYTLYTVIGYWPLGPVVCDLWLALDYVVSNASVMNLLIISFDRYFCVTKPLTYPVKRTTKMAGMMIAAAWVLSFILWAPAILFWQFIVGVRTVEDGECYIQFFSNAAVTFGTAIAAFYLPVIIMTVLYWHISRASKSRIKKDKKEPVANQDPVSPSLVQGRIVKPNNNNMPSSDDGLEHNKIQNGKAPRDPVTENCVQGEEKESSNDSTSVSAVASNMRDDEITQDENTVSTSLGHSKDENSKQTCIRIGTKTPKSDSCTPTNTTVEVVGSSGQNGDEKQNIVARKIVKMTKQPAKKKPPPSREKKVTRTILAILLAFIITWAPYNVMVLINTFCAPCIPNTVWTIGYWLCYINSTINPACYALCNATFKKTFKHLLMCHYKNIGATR

[2] = biological target: Muscarinic acetylcholine receptor M3 (Homo sapiens, UniProt P20309); test: Affinity for Muscarinic acetylcholine receptor M3 expressed in CHO cells by [3H]-NMS displacement.
Sequence of Muscarinic acetylcholine receptor M3 (P20309 whole entry): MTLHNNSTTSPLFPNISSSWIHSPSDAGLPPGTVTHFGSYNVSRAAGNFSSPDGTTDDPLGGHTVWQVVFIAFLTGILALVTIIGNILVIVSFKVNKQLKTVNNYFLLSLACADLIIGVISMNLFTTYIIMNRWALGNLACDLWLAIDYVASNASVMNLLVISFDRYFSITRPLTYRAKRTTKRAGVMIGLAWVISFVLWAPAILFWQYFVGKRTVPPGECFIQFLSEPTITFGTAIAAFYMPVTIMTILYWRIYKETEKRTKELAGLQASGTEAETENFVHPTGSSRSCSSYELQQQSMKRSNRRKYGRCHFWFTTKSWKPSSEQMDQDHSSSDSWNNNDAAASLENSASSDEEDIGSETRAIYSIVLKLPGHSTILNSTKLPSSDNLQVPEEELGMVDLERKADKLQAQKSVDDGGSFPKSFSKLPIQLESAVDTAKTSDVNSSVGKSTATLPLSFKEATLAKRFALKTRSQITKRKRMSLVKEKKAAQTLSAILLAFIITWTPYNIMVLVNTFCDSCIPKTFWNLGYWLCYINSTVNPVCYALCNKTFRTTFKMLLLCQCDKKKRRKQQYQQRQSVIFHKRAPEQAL

[3] = biological target: T2, Muscarinic acetylcholine receptor M1 (Homo sapiens, UniProt P11229); test: Affinity for Muscarinic acetylcholine receptor M1 expressed in CHO cells by [3H]NMS displacement.
T2 sequence (P11229 whole entry): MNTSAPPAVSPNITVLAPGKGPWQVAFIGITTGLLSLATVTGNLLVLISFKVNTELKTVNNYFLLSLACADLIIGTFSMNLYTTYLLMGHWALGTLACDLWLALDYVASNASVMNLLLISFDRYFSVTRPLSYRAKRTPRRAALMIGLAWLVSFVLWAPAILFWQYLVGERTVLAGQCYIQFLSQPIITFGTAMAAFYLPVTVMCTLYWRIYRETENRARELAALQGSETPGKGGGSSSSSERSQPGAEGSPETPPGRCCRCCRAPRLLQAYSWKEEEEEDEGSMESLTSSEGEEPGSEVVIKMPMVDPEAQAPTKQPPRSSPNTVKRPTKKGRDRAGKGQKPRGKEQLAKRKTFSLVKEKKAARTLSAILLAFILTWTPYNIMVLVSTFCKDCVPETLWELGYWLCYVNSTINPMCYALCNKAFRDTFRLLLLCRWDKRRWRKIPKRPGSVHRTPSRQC

[4] = biological target: T3, Muscarinic acetylcholine receptor M5 (Homo sapiens, UniProt P08912); test: Affinity for Muscarinic acetylcholine receptor M5 expressed in CHO cells by [3H]NMS displacement.
T3 sequence (P08912 whole entry): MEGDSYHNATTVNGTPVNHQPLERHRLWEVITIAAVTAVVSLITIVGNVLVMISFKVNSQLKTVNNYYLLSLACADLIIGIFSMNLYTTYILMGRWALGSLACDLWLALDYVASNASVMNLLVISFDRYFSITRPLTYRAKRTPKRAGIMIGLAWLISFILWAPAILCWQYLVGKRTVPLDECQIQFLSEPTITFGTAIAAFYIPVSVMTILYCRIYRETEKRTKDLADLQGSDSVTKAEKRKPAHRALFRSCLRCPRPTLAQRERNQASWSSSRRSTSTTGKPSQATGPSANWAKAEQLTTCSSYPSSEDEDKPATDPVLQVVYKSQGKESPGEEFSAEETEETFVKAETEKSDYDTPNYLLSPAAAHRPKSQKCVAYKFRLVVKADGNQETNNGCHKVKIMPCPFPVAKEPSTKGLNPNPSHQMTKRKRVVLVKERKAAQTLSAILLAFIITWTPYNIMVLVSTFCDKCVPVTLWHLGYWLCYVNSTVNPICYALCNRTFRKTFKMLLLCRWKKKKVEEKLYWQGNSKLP

[5] = biological target: T4, Muscarinic acetylcholine receptor M4 (Homo sapiens, UniProt P08173); test: Affinity for Muscarinic acetylcholine receptor M4 expressed in CHO cells by [3H]NMS displacement.
T4 sequence (P08173 whole entry): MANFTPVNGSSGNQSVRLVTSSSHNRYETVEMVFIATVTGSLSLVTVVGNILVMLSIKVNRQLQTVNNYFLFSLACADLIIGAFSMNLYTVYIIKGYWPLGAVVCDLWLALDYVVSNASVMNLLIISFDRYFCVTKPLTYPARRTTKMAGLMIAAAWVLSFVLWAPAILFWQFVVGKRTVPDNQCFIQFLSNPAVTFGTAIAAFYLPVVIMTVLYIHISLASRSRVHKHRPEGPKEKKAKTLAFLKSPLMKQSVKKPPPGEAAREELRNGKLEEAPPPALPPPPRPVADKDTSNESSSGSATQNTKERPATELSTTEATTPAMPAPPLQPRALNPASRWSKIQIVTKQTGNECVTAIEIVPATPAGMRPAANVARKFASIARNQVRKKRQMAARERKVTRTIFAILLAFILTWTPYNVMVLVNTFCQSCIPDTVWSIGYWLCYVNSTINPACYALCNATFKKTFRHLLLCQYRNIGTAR

| Compound | Ki [1] [µM] | Ki [2] [µM] | Ki [3] [µM] | Ki [4] [µM] | Ki [5] [µM] |
| --- | --- | --- | --- | --- | --- |
| CN(C)CCOC(=O)C1=C/C(=C\c2ccccn2)c2ccccc21 | 12 | 14.1 | 7.08 | 17.8 | 12.3 |
| CN(C)CCN(C)C(=O)C1=C/C(=C\c2cccnc2)c2ccccc21 | 14.1 | 72.4 | 49 | 53.7 | 55 |
| CN(C)CCC1=C/C(=C\c2cccnc2)c2ccccc21 | 15.1 | 27.5 | 18.6 | 26.9 | 22.4 |
| CN(C)CCC1=C/C(=C\c2ccccn2)c2ccccc21 | 12.6 | 21.4 | 9.55 | 19.1 | 12 |
| CN(C)CCNC(=O)C1=C/C(=C\c2ccccn2)c2ccccc21 | 41.7 | 61.7 | 26.9 | 55 | 33.9 |
| CC(C1=C(CCN(C)C)Cc2ccccc21)c1ccccn1 (stereo not drawn) | 0.0447 | 0.191 | 0.263 | 0.794 | 0.407 |
| CN(C)CCOC(=O)C1=C/C(=C\c2ccncc2)c2ccccc21 | 10.5 | 15.1 | 12 | 26.9 | 14.8 |
| CN(C)CCN(C)C(=O)C1=C/C(=C\c2ccccn2)c2ccccc21 | 9.12 | 63.1 | 21.9 | 52.5 | 46.8 |
| CN(C)CCNC(=O)C1=C/C(=C\c2cccnc2)c2ccccc21 | 29.5 | 40.7 | 28.2 | 66.1 | 21.4 |
| CN(C)CCOC(=O)C1=C/C(=C\c2cccnc2)c2ccccc21 | 7.41 | 10 | 11.5 | 30.2 | 12.6 |
| CN(C)CCNC(=O)C1=C/C(=C\c2ccncc2)c2ccccc21 | 15.8 | 45.7 | 24 | 53.7 | 24.5 |
| CN1CCN(C(=O)C2=C/C(=C\c3ccncc3)c3ccccc32)CC1 | 38.9 | 97.7 | 29.5 | 55 | 89.1 |
| CC1OC(=O)[C@H]2C[C@H]3CCCC[C@@H]3[C@@H](/C=C/C3CCCC(C)N3C)[C@@H]12 (single isomer, unassigned) [HIMBACINE] | 0.01 | – | 0.107 | 0.49 | – |
